Reference: patent publication US8940863B2, “Selective anticancer chimeric peptides which bind neuropilin receptor” (Stella Pharma Corporation, priority 2008, dated 2015)
Entries after “also recorded” stand apart in the source; their conditions may differ. Read-outs that look alike come from different tables or passages of the source. Each block holds one compound with its values, some of them ahead of it. Non-standard residues stand in square brackets, D forms with d. Residues, ends and D or L forms follow the SMILES beside them. No end group written: not given here.

What was measured:
BxPC-3 [1] = system: BxPC-3
BT-20 [2] = experiment: Annexin V assay and caspase assay; type: cell-based, human; details: 5 μM, two hours
Method: BT-20 cells were treated for 2 hours at 37° C. with or without EB-lytic chimeric peptide at 5 μM. For determination of caspase activation or Annexin V-positive expression, peptide-treated cultures were simultaneously analyzed for caspase activity and propidium iodide (PI) staining using a carboxyfluorescein FLICA caspase-3&7 assay (Immunochemistry Technologies, Bloomington, Minn.), or, alternatively, for Annexin V labeling and PI staining by multiparametric flow cytometry. Furthermore, in accordance with the manufacturer's instructions, using a confocal laser scanning microscope, terminal deoxynucleotidyl transferase-dUTP nick end labeling (TUNEL) assay was conducted by MEBSTAIN Apoptosis Kit Direct (MBL).
In accordance with the method of Example 1, Annexin V assay and caspase assay were performed. […] For determination of caspase activation or Annexin V-positive expression, peptide-treated cultures were simultaneously analyzed for caspase activity and propidium iodide (PI) staining using a carboxyfluorescein FLICA caspase-3&7 assay (Immunochemistry Technologies, Bloomington, Minn.), or, alternatively, for Annexin V labeling and PI staining by multiparametric flow cytometry. The results are shown in FIG. 20A (Annexin V) and FIG. 20B (caspase activity)

U251 [3] = system: U251
BT-20 [4] = system: BT-20
MRC-5 = experiment: Cell viability assay (WST-8); details: MRC-5 normal cells; 72 hours; mean (Table 2)
[5] = system: human breast cancer cell line MDA-MB-231; experiment: Antitumor effect in MDA-MB-231 bearing mouse models; type: in vivo, athymic nude mice; details: 1 mg/kg intravenously injected; from day 5
H322 lung cancer cells = experiment: Membrane permeabilization (calcein, confocal); type: cell-based, human; details: 10 μM; for percentage of influx of medium to the cells over time (words): compared with EB-Lytic peptide
HEK293 = HEK293 normal cells; 72 hours; mean (Table 2)
U251 [6] = experiment: Short-exposure killing of cancer cells (WST-8); type: cell-based, human; details: 10 μM
HN-12 = experiment: Cell viability assay (WST-8); type: cell-based, human; details: 72 hours
EGFR = EGFR (Homo sapiens, UniProt P00533); details: Li Z et al., FASEB J 2005; read-out: dissociation constant to EGFR; cited from earlier work
DU145 = experiment: Cell viability assay (WST-8); type: cell-based, human; details: 72 hours
[7] = system: PE cell (pancreatic epidermal); experiment: Cell viability assay (WST-8); type: cell-based
From the text: (§1) Correlation between IC50 values was observed.

HEK293T = type: cell-based
BxPC-3 [8] = experiment: Short-exposure killing of cancer cells (WST-8); type: cell-based, human; details: 10 μM
A172 = experiment: Cell viability assay (WST-8); type: cell-based; details: 72 h
WI-38 = details: 72 h
KCCT873 = experiment: Cell viability assay (WST-8); type: cell-based; details: 72 h
[9] = system: human recombinant IL13R protein; experiment: BIACORE binding to IL13R
SK-BR-3 = details: 48 h
HuCCT-1 = details: 48 h
CFPAC-1 = details: 48 h
Panc-1 = details: 48 h
T47D = experiment: Cell viability assay (WST-8); type: cell-based, human; details: 48 h
From the text: as §1

[10] = target: human recombinant NRP1 protein (Homo sapiens, UniProt O14786); experiment: BIACORE binding to NRP1
Method: Based on the results of binding three-dimensional structure analysis of NRP1 and a Sema3A, a ligand thereof, partial peptide sequence which is important for binding (NYQWVPYQGRVPYPR (SEQ ID NO: 29)) was designed and chemically synthesized. By BIACORE analysis, binding affinity with human recombinant NRP1 protein was assessed.

[11] = target: T1, human recombinant IL4R protein (Homo sapiens, UniProt P24394); experiment: BIACORE binding to IL4R
T1 sequence (P24394 26-825): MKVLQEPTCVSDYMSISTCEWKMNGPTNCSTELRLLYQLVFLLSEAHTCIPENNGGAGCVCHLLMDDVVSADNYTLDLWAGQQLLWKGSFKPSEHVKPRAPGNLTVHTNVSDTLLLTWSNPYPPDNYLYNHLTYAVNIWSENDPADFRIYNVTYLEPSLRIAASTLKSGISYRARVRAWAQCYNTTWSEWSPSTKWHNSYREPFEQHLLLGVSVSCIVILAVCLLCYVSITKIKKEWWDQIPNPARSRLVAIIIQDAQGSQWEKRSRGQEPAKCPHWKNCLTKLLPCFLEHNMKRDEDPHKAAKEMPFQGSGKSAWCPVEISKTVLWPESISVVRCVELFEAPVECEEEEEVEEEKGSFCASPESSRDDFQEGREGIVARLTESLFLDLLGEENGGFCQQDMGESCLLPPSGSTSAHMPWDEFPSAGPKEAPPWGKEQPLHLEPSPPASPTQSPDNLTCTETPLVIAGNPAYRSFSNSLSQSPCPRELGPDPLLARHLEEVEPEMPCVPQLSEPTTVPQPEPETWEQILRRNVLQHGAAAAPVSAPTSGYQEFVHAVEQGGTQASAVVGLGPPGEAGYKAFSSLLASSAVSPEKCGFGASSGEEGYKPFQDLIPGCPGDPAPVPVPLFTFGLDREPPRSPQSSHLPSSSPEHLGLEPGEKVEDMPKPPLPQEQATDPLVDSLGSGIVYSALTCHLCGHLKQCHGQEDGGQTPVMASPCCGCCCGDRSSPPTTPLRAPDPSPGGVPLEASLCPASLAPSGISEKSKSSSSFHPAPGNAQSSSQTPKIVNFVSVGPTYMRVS

[12] = listed as EB (H2R)-Lytic peptide

Sequence of human recombinant NRP1 protein (O14786 22-923): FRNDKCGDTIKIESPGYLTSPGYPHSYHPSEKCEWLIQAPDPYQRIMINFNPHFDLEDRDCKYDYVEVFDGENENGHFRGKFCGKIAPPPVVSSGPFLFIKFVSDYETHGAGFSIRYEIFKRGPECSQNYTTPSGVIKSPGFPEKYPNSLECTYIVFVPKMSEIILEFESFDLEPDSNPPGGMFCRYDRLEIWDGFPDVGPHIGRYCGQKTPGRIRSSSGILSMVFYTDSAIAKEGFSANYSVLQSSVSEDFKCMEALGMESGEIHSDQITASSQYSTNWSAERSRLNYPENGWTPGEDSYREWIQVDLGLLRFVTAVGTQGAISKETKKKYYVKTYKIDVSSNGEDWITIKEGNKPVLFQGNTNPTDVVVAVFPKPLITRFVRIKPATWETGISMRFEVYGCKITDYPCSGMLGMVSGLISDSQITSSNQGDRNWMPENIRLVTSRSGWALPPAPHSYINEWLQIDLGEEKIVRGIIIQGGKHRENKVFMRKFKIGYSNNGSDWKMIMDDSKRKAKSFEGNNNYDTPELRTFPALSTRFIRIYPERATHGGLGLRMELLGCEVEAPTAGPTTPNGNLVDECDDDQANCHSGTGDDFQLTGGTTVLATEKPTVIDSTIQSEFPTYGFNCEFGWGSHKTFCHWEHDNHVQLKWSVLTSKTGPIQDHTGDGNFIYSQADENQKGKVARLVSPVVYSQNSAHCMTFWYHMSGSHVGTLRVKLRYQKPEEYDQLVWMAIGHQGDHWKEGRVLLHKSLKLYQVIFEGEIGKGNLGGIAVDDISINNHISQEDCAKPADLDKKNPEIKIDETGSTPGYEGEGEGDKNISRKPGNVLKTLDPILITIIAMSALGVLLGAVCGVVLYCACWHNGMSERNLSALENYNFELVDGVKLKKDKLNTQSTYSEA

Compound: CC[C@H](C)[C@H](NC(=O)[C@@H](NC(=O)[C@H](CC(N)=O)NC(=O)[C@H](CCC(N)=O)NC(=O)[C@@H]1CCCN1C(=O)[C@@H](NC(=O)[C@H](Cc1ccc(O)cc1)NC(=O)CNC(=O)[C@H](Cc1ccc(O)cc1)NC(=O)[C@H](Cc1c[nH]c2ccccc12)NC(=O)[C@H](CCCNC(=N)N)NC(=O)[C@@H](N)Cc1ccc(O)cc1)[C@@H](C)O)C(C)C)C(=O)NCC(=O)NCC(=O)NCC(=O)N[C@@H](CCCCN)C(=O)N[C@@H](CC(C)C)C(=O)N[C@H](CC(C)C)C(=O)N[C@@H](CC(C)C)C(=O)N[C@@H](CCCCN)C(=O)N[C@H](CC(C)C)C(=O)N[C@@H](CC(C)C)C(=O)N[C@H](CCCCN)C(=O)N[C@H](CCCCN)C(=O)N[C@@H](CC(C)C)C(=O)N[C@@H](CC(C)C)C(=O)N[C@@H](CCCCN)C(=O)N[C@H](CC(C)C)C(=O)N[C@@H](CC(C)C)C(=O)N[C@@H](CCCCN)C(=O)N[C@@H](CCCCN)C(=O)N[C@@H](CCCCN)C(=O)O [EB(H2R)-lytic peptide] (H-YRWYGYTPQNVIGGGKL[dL]LK[dL]L[dK][dK]LLK[dL]LKKK-OH; N-terminus and C-terminus assumed)
IC50 Ratio EB-lytic peptide/EB(H2R)-lytic peptide (BxPC-3 [1]; BxPC-3): 1.8
IC50 (BxPC-3 [1]; BxPC-3 cancer cells, 72 hours, mean (Table 2)): 6.6 µM
Annexin V-positive expression (words) (BT-20 [2]; [12]): induces Annexin V-positive expression more strongly
caspase 3,7 activation (words) (BT-20 [2]; [12]): induces caspase 3 & 7 activity more strongly
Annexin V-positive expression (words) (BT-20 [2]; listed as EB(H2R)-lytic): induced Annexin V-positive expression more strongly
caspase 3,7 activation (words) (BT-20 [2]; listed as EB(H2R)-lytic): induced caspase 3,7 activation more strongly
IC50 Ratio EB-lytic peptide/EB(H2R)-lytic peptide (U251 [3]; U251): 1.4
IC50 (U251 [3]; U251 cancer cells, 72 hours, mean (Table 2)): 8.4 µM
IC50 Ratio EB-lytic peptide/EB(H2R)-lytic peptide (SU.86.86; SU.86.86): 1.6
IC50 (SU.86.86; SU.86.86 cancer cells, 72 hours, mean (Table 2)): 7.4 µM
IC50 Ratio EB-lytic peptide/EB(H2R)-lytic peptide (LNCaP; LNCaP): 2.1
IC50 (LNCaP; LNCaP cancer cells, 72 hours, mean (Table 2)): 4.8 µM
IC50 Ratio EB-lytic peptide/EB(H2R)-lytic peptide (BT-20 [4]; BT-20): 3.4
IC50 (BT-20 [4]; BT-20 cancer cells, 72 hours, mean (Table 2)): 1.9 µM
IC50 Ratio EB-lytic peptide/EB(H2R)-lytic peptide (H322; H322): 2.1
cell-killing effect compared with wild-type EGFR-binding chimeric peptide (H322; H322, 72 hours): enhanced more
IC50 (H322; H322 cancer cells, 72 hours, mean (Table 2)): 3.2 µM
IC50 (MRC-5): > 20 µM
antitumor effect [5]: in vivo antitumor effect higher; also recorded: higher antitumor effect in vivo; also recorded: sufficient antitumor effect
number of cells with the membrane disintegrated (green) over time (H322 lung cancer cells; 0 to 20 minutes): increases in shorter time
percentage of influx of medium to the cells over time (words) (H322 lung cancer cells; [12]): more rapid
percentage of influx of medium to the cells over time (words) (H322 lung cancer cells; listed as EB(H2R)-Lytic peptide): more efficient
IC50 (HEK293): > 20 µM

Compound: KDLLLHLKKLFREGQFNGGGKLLLKLLKKLLKLLKKK (IL13-lyticL chimeric peptide)
contact time that sufficiently induces cell death (U251 [6]): 10 min
cell-killing effect compared with LyticL alone (U251 [3]; U251, 72 hours): cell-killing effect was enhanced
cell-killing effect compared with LyticL alone (HN-12): cell-killing effect was enhanced

Compound: YHWYGYTPQNVI [EB peptide]
Kd (EGFR): 0.022 µM

Compound: YHWYGYTPQNVIGGGGGRLLRRLLRRLLRK (EGFbuf sequence)
cell-killing effect compared with buf alone (DU145): cell-killing effect was enhanced
cell-killing effect to H322 compared with lung normal cell line MRC-5 (H322; 0 to 20 μM, 72 hours): cell-killing sensitiveness to cancer cells was high
cell-killing effect of chimeric peptide compared with lytic moiety alone (H322; H322, 72 hours): cell-killing effect was enhanced

IC50 (BxPC-3 [1]; 72 h): 3.2 ± 0.4 µM
IC50 (U251 [3]; 72 h): 3.7 ± 0.1 µM
IC50 (MDA-MB-231; 72 h): 5.6 ± 0.5 µM
Compound: KQLIRFLKRLDRNGGGKLLLKLLKKLLKLLKKK [IL4-LyticL]
cell-killing effect compared with LyticL alone (BxPC-3 [1]; BxPC-3, 72 hours): cell-killing effect was enhanced
IC50 ([7]; PE normal cells, 72 hours, Mean ± SD (Table 4), read-out: IC50): > 20 µM
IC50 (HEK293T; 72 h): 7.2 ± 0.7 µM
contact time that sufficiently induces cell death (BxPC-3 [8]): 10 min
IC50 (A172): 3.8 ± 1.1 µM
IC50 (WI-38): 9.8 ± 0.8 µM
IC50 (KCCT873): 4.6 ± 0.1 µM
cell-killing effect compared with LyticL alone (MDA-MB-231; MDA-MB-231, 72 hours): cell-killing effect was enhanced

Compound: KDLLLHLKKLFREGQFN (IL13R binding peptide) [IL13R-binding peptide]
binding affinity (BIACORE, words) [9]: binding affinity with human recombinant IL13R protein was observed

IC50 (BxPC-3 [1]; 48 h): 12.5 µM
IC50 (SK-BR-3): 8 µM
IC50 (SU.86.86; 48 h): 7.9 µM
IC50 (BT-20 [4]; 48 h): 10.9 µM
IC50 (HuCCT-1): 13.6 µM
IC50 (CFPAC-1): 10.6 µM
IC50 (MDA-MB-231; 48 h): 11.5 µM
IC50 (Panc-1): 13.1 µM
IC50 (T47D): 4.1 µM
Compound: CC(C)C[C@H](NC(=O)[C@H](CCCCN)NC(=O)[C@@H](CC(C)C)NC(=O)[C@H](CC(C)C)NC(=O)[C@H](CCCCN)NC(=O)[C@H](CCCCN)NC(=O)[C@H](CC(C)C)NC(=O)[C@@H](CC(C)C)NC(=O)[C@@H](CCCCN)NC(=O)[C@H](CCCCN)NC(=O)[C@H](CC(C)C)NC(=O)[C@H](CC(C)C)NC(=O)[C@@H](CCCCN)NC(=O)[C@H](CC(C)C)NC(=O)[C@H](CC(C)C)NC(=O)CNC(=O)CNC(=O)[C@H](CCCNC(=N)N)NC(=O)[C@@H]1CCCN1C(=O)[C@H](Cc1ccc(O)cc1)NC(=O)[C@@H]1CCCN1C(=O)[C@@H](NC(=O)[C@H](CCCNC(=N)N)NC(=O)CNC(=O)[C@H](CCC(N)=O)NC(=O)[C@H](Cc1ccc(O)cc1)NC(=O)[C@@H]1CCCN1C(=O)[C@@H](NC(=O)[C@H](Cc1c[nH]c2ccccc12)NC(=O)[C@H](CCC(N)=O)NC(=O)[C@H](Cc1ccc(O)cc1)NC(=O)[C@@H](N)CC(N)=O)C(C)C)C(C)C)C(=O)O [Sema3A(aa363-377)-nLytic] (H-NYQWVPYQGRVPYPRGGLL[dK]LLK[dK][dL]LKKL[dL]KL-OH; N-terminus and C-terminus assumed)
IC50 ([7]; 48 h): > 50 µM
IC50 (HEK293T; 48 h): > 20 µM

Compound: NYQWVPYQGRVPYPR (NRP1 binding peptide) [NRP1-binding peptide]
binding affinity (BIACORE, words) [10]: binding affinity with human recombinant NRP1 protein was observed

Compound: KQLIRFLKRLDRN (IL4R binding peptide) [IL4R-binding peptide]
binding affinity (BIACORE, words) [11]: binding affinity with human recombinant IL4R protein was observed
